Experiment [1] relates to multiple myeloma. The experiment can be described thus: Response of the pharmacogenomic patient subset (studies 024, 025, 039, 040), EBMT criteria. To be noted: for NP, number of patients classified as progression / NR, number of patients classified as responder / NS, number of patients classified as stable disease: best response, discovery samples. It counts as in vivo, human. As for the experimental part: Patients assigned to the high-dose dexamethasone group received treatment for a maximum of 280 days. Patients in this treatment group received up to four 5-week treatment cycles, followed by up to five 4-week treatment cycles. Within each 5-week treatment cycle, the patient received dexamethasone 40 mg/day PO, once daily on Days 1 to 4, 9 to 12, and 17 to 20 of a 35-day cycle. Within each 4-week treatment cycle, the patient received dexamethasone 40 mg/day PO once daily on Days 1 to 4 of a 28 day cycle.
Pharmacogenomic tumor samples (bone marrow aspirate) were collected from patients for evaluation of the expression of global mRNA levels.
For those patients who participated in the pharmacogenomic portion of the study, correlation between RNA expression levels and response to therapy were evaluated descriptively. In addition, duration of response, time to disease progression, quality of life, and overall patient survival may be analyzed using RNA expression as a factor.
A total of 224 patient samples were assessed for pharmacogenomic analyses. […] All pharmacogenomic analyses relied on the European Group for Blood and Marrow Transplant (EBMT) criteria of response category.
The data set consisted of discovery samples matched with the patient's outcome as measured by best response and time to disease progression. For best response, each patient was classified as responder (NR), stable disease (NS), or progression (NP). For marker identification, the three response classes were further grouped into responders vs. non-responders (stable and progression) (NP+S), responders vs. progression, or progression vs. others (stable and responders) (NR+S). The analyses further separated the patients based on the treatment they received. […] Thus, the responder vs. non-responder analysis utilizes 79 vs. 84 samples. The responder vs. progression analysis utilizes 79 vs. 41 and the progression vs. other analysis utilizes 41 vs. 122 samples. For the dexamethasone analysis NR=25, NS=16, and NP=21. Accordingly, the responder vs. non-responder analysis utilizes 25 vs. 37 samples. The responder vs. progression analysis utilizes 25 vs. 21 and the progression vs. other analysis utilizes 21 vs. 41 samples.

The subject of experiment [2] is multiple myeloma. To be noted: bortezomib alone, cited from earlier work.
Experiment [3] deals with relapsed multiple myeloma. To be noted: cited from earlier work.

Molecules are shown by their SMILES. Where two headings read alike, the source gives them in different places.

For `CC(C)C[C@H](NC(=O)[C@H](Cc1ccccc1)NC(=O)c1cnccn1)B(O)O` [bortezomib, N-pyrazinecarbonyl-L-phenylalanine-L-leucineboronic acid], in the experiment with multiple myeloma [1] (Study 024), the “CR, number of patients” value is reported as 1; the “IE, number of patients” value was determined as 0; the “MR, number of patients” value was found to be 0; the “NC, number of patients” value came to 1. In the experiment with multiple myeloma [1] (Study 024), the “PD, number of patients” value was 4 and the “PR, number of patients” value turned out to be 1. For the same compound, in the experiment with multiple myeloma [1] (Study 025), the “CR, number of patients” value was 2; the “IE, number of patients” value came out at 5; the “MR, number of patients” value worked out at 3; the “NC, number of patients” value was determined as 10. Moreover, in the experiment with multiple myeloma [1] (Study 025), the “PD, number of patients” value came out at 14 and the “PR, number of patients” value was found to be 10. Moreover, in the experiment on multiple myeloma [1] (Study 040), the “CR, number of patients” value is reported as 1; the “IE, number of patients” value amounted to 2; the “MR, number of patients” value is on record as 6; the “NC, number of patients” value stood at 13. Further, in the experiment with multiple myeloma [1] (Study 040), the “PD, number of patients” value was 8 and the “PR, number of patients” value is 20. Moreover, in the experiment on multiple myeloma [1], the “NP, number of patients classified as progression” value stood at 41; the “NR, number of patients classified as responder” value was determined as 79; the “NS, number of patients classified as stable disease” value is listed as 43. Besides, in the experiment on multiple myeloma [1] (pharmacogenomic patient set), the “CR+PR rate” value stood at 35% and the overall response rate is listed as 46.4%. For the same compound, the “CR+PR rate” value with multiple myeloma [2] (53 of 193 patients) was 27%. Further, the “overall response rate (CR+PR+MR)” value in the experiment on multiple myeloma [2] (67 of 193 patients) is 35%. Further, the “CR+PR rate” value in experiment [3] (bortezomib 1.0 mg/m^2) is given as 30%. In addition, the “CR+PR rate” value in experiment [3] (bortezomib 1.3 mg/m^2) is listed as 38%.
As for `C[C@@H]1C[C@H]2[C@@H]3CCC4=CC(=O)C=C[C@]4(C)[C@@]3(F)[C@@H](O)C[C@]2(C)[C@@]1(O)C(=O)CO` [dexamethasone], in the experiment on multiple myeloma [1], the “NP, number of patients classified as progression” value is reported as 21; the “NR, number of patients classified as responder” value is recorded as 25; the “NS, number of patients classified as stable disease” value amounted to 16.

The values are drawn from patent publication US8889354B2, “Methods for the identification, assessment, and treatment of patients with cancer therapy” (Millennium Pharmaceuticals, Inc., priority 2005, dated 2014).
